41 molecules from US20260226034A1 (The Rockefeller University, priority 2023, published 2026) can be followed below.

Like-named read-outs stand apart in the source and are kept apart here.

For this assay, the target named is NSP14 (Severe acute respiratory syndrome coronavirus 2, UniProt P0DTD1). Kind of assay: NSP14 MTase inhibition assay at 37° C. (MTase-Glo SAH detection). Type of assay: biochemical, SARS-CoV-2. The conditions noted are these: 0.3 nM NSP14, 2.5 μM SAM, 2.5 μM GpppA RNA, read-out: Nsp14 Mtase Inh. IC50.

Regarding `Cc1cc(S(=O)(=O)c2cc(C(=O)NCc3c(F)ccnc3N3CCC(C)(C(=O)O)C3)n(C)c2C)cc2cnn(C)c12` (racemic) [B.127], the half-inhibitory concentration (IC50) (37° C.) was 0.58 nM.

`CN=S(=O)(c1ccc2[nH]ncc2c1)c1cc(C(=O)N[C@@H]2CCN(c3ncc(F)cn3)C2)n(C)c1C` (some centres unmarked) [A.70]: the IC50 (45 min at 37° C.) is 3.9 nM.

On to `Cc1c(S(=O)(=O)c2ccc3[nH]ncc3c2)cc(C(=O)NCCCOc2ncc(F)cn2)n1C` [B.196], for which the IC50 (37° C.) worked out at 18 nM.

For `Cc1c(S(=O)(=O)c2ccccc2)cc(C(=O)NCc2c(F)ccc3occc23)n1C` [A.20], the concentration for half-maximal inhibition (IC50) (45 min at 37° C.) turned out to be 22 nM.

For the molecule `COc1nccc(F)c1CNC(=O)c1cc(S(=O)(=O)c2ccc3[nH]ncc3c2)c(C)n1C` [B.112], for the setting “37° C.”, the IC50 is < 0.15 nM.

Turning to `Cc1c(S(=O)(=O)c2ccc3[nH]ncc3c2)cc(C(=O)NCc2ccnn2C(F)F)n1C` [B.165], the concentration for half-maximal inhibition (IC50) (37° C.) amounted to 14 nM.

Regarding `Cc1c(S(=O)(=O)c2ccc3[nH]ncc3c2)cc(C(=O)NCc2c(F)cccc2OCCS(C)(=O)=O)n1C` [B.108], the IC50 (37° C.) is < 0.15 nM.

Turning to `Cc1c(S(=O)(=O)c2ccc3[nH]ncc3c2)cc(C(=O)NC(C)c2ccnn2C)n1C` (racemic) [B.172], the half-maximal inhibitory concentration (IC50) (37° C.) was found to be 24 nM.

In the case of `COCCn1c(C(=O)NCc2c(Cl)cnn2C)cc(S(=O)(=O)c2cc(Cl)c3[nH]ncc3c2)c1C` [B.194], the IC50 (37° C.) worked out at 1.1 nM.

In the case of `Cc1c(S(=O)(=O)c2ccc3[nH]ncc3c2)cc(C(=O)NCc2cncnc2N2CCC(F)(F)C2)n1C` [B.40], the IC50 (37° C.) came to 0.22 nM.

Consider `Cc1c(S(=O)(=O)c2ccc3[nH]ncc3c2)cc(C(=O)N[C@@H]2CCN(Cc3ccc(C#N)cn3)C2)n1C` [A.105], for which, under “45 min at 37° C.”, the IC50 was 14 nM.

Turning to `Cc1c(S(=O)(=O)c2ccc3[nH]ncc3c2)cc(C(=O)NC2CCCN(c3ncc(F)cn3)C2)n1C` (centres unmarked) [A.77], the IC50 (45 min at 37° C.) turned out to be 7.9 nM.

For `Cc1c(S(=O)(=O)c2ccc3[nH]ncc3c2)cc(C(=O)NCc2c(F)cncc2F)n1C` [B.107], the half-inhibitory concentration (IC50) (37° C.) came to 0.12 nM.

With `Cc1c(S(=O)(=O)c2ccc3[nH]nc(C#N)c3c2)cc(C(=O)NCc2cccc3cnn(C)c23)n1C` [B.29], where the note is “37° C.”, the IC50 was found to be 138 nM.

For the molecule `Cc1c(S(=O)(=O)c2ccc3[nH]ncc3c2)cc(C(=O)N[C@@H]2CCN(Cc3ccc(C#N)cc3)C2)n1C` [A.101], the IC50 (45 min at 37° C.) stood at 26 nM.

As to `Cc1cc[nH]c(=O)c1CNC(=O)c1cc(S(=O)(=O)c2ccc3[nH]ncc3c2)c(C)n1C` [B.116], the IC50 (37° C.) came to 4.6 nM.

For the molecule `Cc1c(S(=O)(=O)c2cccc(C#N)c2)cc(C(=O)NCc2cccc3ncn(C)c23)n1C` [B.4], the IC50 (37° C.) turned out to be 4.9 nM.

As to `Cc1c(S(=O)(=O)c2ccc3[nH]ncc3c2)cc(C(=O)N[C@H]2Cc3ccccc32)n1C` (single isomer, unassigned) [B.171], under “37° C.”, the 50% inhibitory concentration (IC50) turned out to be 2.7 nM.

For the molecule `COCCn1c(C(=O)N[C@@H]2CCN(c3ncc(F)cn3)C2)cc(S(=O)(=O)c2ccc3[nH]ncc3c2)c1C` [A.91], the 50% inhibitory concentration (IC50) (45 min at 37° C.) amounted to 0.17 nM.

In the case of `Cc1c(S(=O)(=O)c2ccc3[nH]ncc3c2)cc(C(=O)NCc2nccc3ncn(C4CC4)c23)n1C` [B.117], where the note is “37° C.”, the IC50 was 0.18 nM.

Take `O=C(N[C@@H]1CCN(c2ncc(F)cn2)C1)c1cc(S(=O)(=O)c2ccc3[nH]ncc3c2)c2n1CCC2` [A.68]: the half-inhibitory concentration (IC50) (45 min at 37° C.) amounted to 0.36 nM.

With `Cc1c(S(=O)(=O)c2ccc(C#N)cc2)cc(C(=O)NCc2cccc3cnn(C)c23)n1C` [A.24], the IC50 (45 min at 37° C.) was determined as 89 nM.

Consider `Cc1c(S(=O)(=O)c2ccc3[nH]ncc3c2)cc(C(=O)NCc2cc(F)cc3cnn(C)c23)n1C` [B.96], for which the 50% inhibitory concentration (IC50) (37° C.) came to 1 nM.

In the case of `COc1ncc(N2CC[C@@H](NC(=O)c3cc(S(=O)(=O)c4ccc5[nH]ncc5c4)c(C)n3C)C2)cn1` [A.124], the IC50 (45 min at 37° C.) came to 0.23 nM.

In the case of `Cc1c(S(=O)(=O)c2ccc3[nH]ncc3c2)cc(C(=O)N[C@@H]2CCN(c3ccc(C(F)(F)F)nn3)C2)n1C` [A.76], the 50% inhibitory concentration (IC50) (45 min at 37° C.) was found to be 0.44 nM.

`Cc1c(S(=O)(=O)c2ccc3[nH]ncc3c2)cc(C(=O)N[C@@H]2CCN(c3ncccc3C(F)(F)F)C2)n1C` [A.80]: the IC50 (45 min at 37° C.) turned out to be 1.5 nM.

Consider `COc1ccc(CNC(=O)c2cc(S(=O)(=O)c3ccc4[nH]nc(F)c4c3)c(C)n2C)c(C(F)(F)F)n1` [B.176], for which the IC50 (37° C.) amounted to 7 nM.

Take `Cc1c(S(=O)(=O)c2ccc3[nH]ncc3c2)cc(C(=O)NNc2c(F)cccc2F)n1C` [B.75]: the IC50 (37° C.) amounted to 9.6 nM.

As to `Cc1c(S(=O)(=O)c2ccc3[nH]nc(F)c3c2)cc(C(=O)NCc2c[nH]c(=O)c3ccccc23)n1C` [B.95], the half-maximal inhibitory concentration (IC50) (37° C.) worked out at 2.2 nM.

For the molecule `Cc1c(S(=O)(=O)c2ccc(=O)n(C)c2)cc(C(=O)NCc2cccc3cnn(C)c23)n1C` [A.15], the 50% inhibitory concentration (IC50) (45 min at 37° C.) stood at 13.4 nM.

On to `Cc1c(S(=O)(=O)c2ccc3[nH]ncc3c2)cc(C(=O)NCc2c(Cl)cnn2C)n1C1CC1` [B.188], for which the IC50 (37° C.) is 1.6 nM.

On to `Cc1c(S(=O)(=O)c2ccc3occc3c2)cc(C(=O)NCc2c(F)ccc3occc23)n1C` [A.14], for which the concentration for half-maximal inhibition (IC50) (45 min at 37° C.) worked out at 7.7 nM.

In the case of `Cc1c(S(=O)(=O)c2ccc3nn[nH]c3c2)cc(C(=O)NCc2c(F)ccc3occc23)n1C` [A.31, 4-((1H-benzo[d][1,2,3]triazol-6-yl)sulfonyl)-N-((5-fluorobenzofuran-4-yl)methyl)-1,5-dimethyl-1H-pyrrole-2-carboxamide], under “45 min at 37° C.”, the IC50 was found to be 315 nM.

For the molecule `Cc1c(S(=O)(=O)c2cc(CO)c3[nH]ncc3c2)cc(C(=O)NCc2cccc3cnn(C4CC4)c23)n1C` [B.45], the IC50 (37° C.) stood at 4 nM.

For the molecule `Cc1c(S(=O)(=O)c2ccc3[nH]ncc3c2)cc(C(=O)NC2CCc3cccc(F)c32)n1C` (racemic) [B.110], the IC50 (37° C.) was 0.38 nM.

For `Cc1c(S(=O)(=O)c2ccc3[nH]ncc3c2)cc(C(=O)NCc2ccc(=O)n(C)c2)n1C` [B.177], the IC50 (37° C.) came to 138 nM.

Turning to `Cc1c(S(=O)(=O)c2ccc3[nH]ncc3c2)cc(C(=O)NCc2c[nH]c(=O)c3cccnc23)n1C` [B.159], under “37° C.”, the IC50 was found to be 0.43 nM.

As to `Cc1cc(C)c(CNC(=O)c2cc(S(=O)(=O)c3ccc4[nH]ncc4c3)c(C)n2C)c(=O)[nH]1` [B.161], the 50% inhibitory concentration (IC50) (37° C.) was 2.7 nM.

Turning to `Cc1c(S(=O)(=O)c2ccc3[nH]ncc3c2)cc(C(=O)N[C@@H]2CCN(c3ncc(F)cn3)C2)n1C` [A.34, N-[(3R)-1-(5-fluoropyrimidin-2-yl)pyrrolidin-3-yl]-4-(1H-indazol-5-ylsulfonyl)-1,5-dimethyl-pyrrole-2-carboxamide], the IC50 (45 min at 37° C.) was 0.17 nM.

For `Cc1c(S(=O)(=O)c2cc(C#N)c3[nH]ncc3c2)cc(C(=O)N[C@@H]2CCN(c3ncc(F)cn3)C2)n1C` [A.63], under “45 min at 37° C.”, the half-inhibitory concentration (IC50) stood at 0.46 nM.

As to `Cc1c(S(=O)(=O)c2ccc3[nH]ncc3c2)cc(C(=O)N[C@@H]2CCN(c3ccccc3C#N)C2)n1C` [A.83], the half-inhibitory concentration (IC50) (45 min at 37° C.) worked out at 0.84 nM.
